This note sets out measurements from patent US9232799B2, “N-[(het)arylethyl)] pyrazole(thio)carboxamides and their heterosubstituted analogues” (BAYER INTELLECTUAL PROPERTY GMBH, priority 2010, dated 2016).

For one series, the system named is Phakopsora pachyrhizi. Put plainly: In vivo protective test on Phakopsora pachyrhizi (soybeans). The note with it: dose 250 ppm of active ingredient, evaluated 11 days after inoculation.
A further series has as its system Sphaerotheca fuliginea. Put plainly: In vivo preventive test on Sphaerotheca fuliginea (cucumber). As to conditions: 500 ppm of active ingredient, evaluated 7 days after inoculation. The text has this: One day after this treatment, the plants are inoculated with an aqueous spore suspension of Sphaerotheca fuliginea.
The next series concerns Venturia inaequalis. Nature of the series: In vivo preventive test on Venturia inaequalis (apple scab). The note with it: 100 ppm of active ingredient, evaluated 10 days after inoculation.
The test system of another series is Septoria tritici. Put plainly: In vivo preventive test on Septoria tritici (wheat). The note with it: 500 ppm of active ingredient, evaluated 21 days after inoculation. The text has this: (§1) To test for preventive activity, young plants are sprayed with the preparation of active compound or active compound combination at the stated rate of application.
A further series concerns Uromyces appendiculatus. Nature of the series: In vivo preventive test on Uromyces appendiculatus (beans). As to conditions: 100 ppm of active ingredient, evaluated 10 days after inoculation.
The test system of a further series is Botrytis cinerea. Put plainly: In vivo preventive test on Botrytis cinerea (beans). The text has this:
To test for preventive activity, young plants are sprayed with the preparation of active compound. After the spray coating has dried on, 2 small pieces of agar covered with growth of Botrytis cinerea are placed on each leaf.

The next series deals with Fusarium graminearum. Nature of the series: microbe, parasite or virus in culture. It is filed as cell-based. The note with it: 50 μM.
A further series has as its system Alternaria solani. Nature of the series: In vivo preventive test on Alternaria solani (tomato). As to conditions: 500 ppm of active ingredient, evaluated 7 days after inoculation. The text has this:
One day after this treatment, the plants are inoculated with an aqueous spore suspension of Alternaria solani.

The next series deals with Pyrenophora teres. Put plainly: In vivo preventive test on Pyrenophora teres (barley). The note with it: 500 ppm of active ingredient, evaluated 7-9 days after inoculation. The text has this: One day after this treatment, the plants are inoculated with an aqueous spore suspension of Pyrenophora teres.
Series [1] deals with Blumeria graminis f.sp. hordei. Put plainly: In vivo preventive test on Blumeria graminis (barley). As to conditions: 500 ppm of active ingredient, evaluated 7 days after inoculation.
Source text: as §1

In the next series the test system is aflatoxines production. Put plainly: microbe, parasite or virus in culture. It is filed as cell-based, Aspergillus parasiticus. As to conditions: 50 μM.
Series [2] has as its system Fusarium nivale (var. majus). Put plainly: In vivo preventive test on Fusarium nivale (wheat). The note with it: 500 ppm of active ingredient, evaluated 5 days after inoculation.
Source text: as §1

Another series relates to Puccinia triticina. Put plainly: In vivo preventive test on Puccinia triticina (wheat). The note with it: evaluated 8 days after inoculation; for Efficacy: dose 500 ppm of active ingredient.
In the next series the test system is Leptosphaeria nodorum. Put plainly: In vivo preventive test on Leptosphaeria nodorum (wheat). The note with it: 500 ppm of active ingredient, evaluated 7-9 days after inoculation. The text has this:
One day after this treatment, the plants are inoculated with an aqueous spore suspension of Leptosphaeria nodorum.

Series [3] is described as follows: logP by HPLC on reversed-phase column (C 18), EEC Directive 79/831 Annex V.A8. The class given is physicochemical. As for the experimental part: In table 1, the logP values were determined in accordance with EEC Directive 79/831 Annex V.A8 by HPLC (High Performance Liquid Chromatography) on a reversed-phase column (C 18), using the method described below: Temperature: 40° C.; […]

Where [4] appears, read: preventive, beans, 100 ppm of active ingredient, lesion size 2 days after inoculation.

Values joined by “and” are separate entries in the source; they are usually repeats but may differ in a detail not shown here. Identical values can stand only once.

For orientation: logP means the decadic logarithm of the partition coefficient of the neutral form, usually between octanol and water.

In the case of `Cn1nc(C(F)F)c(C(=O)N(C[Si](C)(C)c2ccc(Cl)cc2Cl)C2CC2)c1F` [Example 238], the Efficacy with Phakopsora pachyrhizi is 85%; with Sphaerotheca fuliginea, 98%; in the series with Venturia inaequalis, 100%; in the series with Septoria tritici, 100%; in the series on Uromyces appendiculatus, 100%; in the series on Botrytis cinerea (setting [4]), 100%. The Efficacy is given as 94% in the series on Alternaria solani; 100% in the series with Pyrenophora teres; 100% in series [1]; 83% in series [2]; 100% with Puccinia triticina; 100% in the series on Leptosphaeria nodorum. Moreover, the “% Inhibition of fungal growth at 50 μM” value with Fusarium graminearum turned out to be 100%. In addition, the “% Inhibition of Aflatoxin at 50 μM” value in the series with aflatoxines production stood at 100%. The logP in series [3] stood at 4.78.

Turning to `Cn1nc(C(F)F)c(C(=O)N(C2CC2)C2CCCC2c2ccc(Cl)cc2Cl)c1F` (centres unmarked) [Example 211], the Efficacy is 80% in the series on Phakopsora pachyrhizi; 100% with Sphaerotheca fuliginea; 100% in the series on Venturia inaequalis; 100% with Septoria tritici; 100% with Uromyces appendiculatus; 100% with Botrytis cinerea (setting [4]). For the same compound, the Efficacy is 100% in the series on Alternaria solani; 100% with Pyrenophora teres; 100% in [1]; 100% in series [2]; 100% and 98% in the series with Puccinia triticina; 95% in the series with Leptosphaeria nodorum. In the series on Fusarium graminearum, the “% Inhibition of fungal growth at 50 μM” value was found to be 100%. Also, the “% Inhibition of Aflatoxin at 50 μM” value in the series with aflatoxines production turned out to be 100%. Besides, the “Efficacy (protection)” value in the series with Puccinia triticina (preventive, 500 ppm of active ingredient) is on record as “greater than 95%”. In series [3], the logP is reported as 4.67.

In the case of `Cn1nc(C(F)F)c(C(=O)N(C[Si](C)(C)c2cccc(Cl)c2)C2CC2)c1F` [Example 235], the Efficacy in the series on Phakopsora pachyrhizi is reported as 100%; in the series on Sphaerotheca fuliginea it was 95%; in the series with Venturia inaequalis, 100%; with Septoria tritici, 100%; in the series with Uromyces appendiculatus, 100%; with Botrytis cinerea (setting [4]) it was 99%. Moreover, the Efficacy in the series on Alternaria solani was determined as 100%; in the series with Pyrenophora teres, 100%; in series [1], 94%; in series [2], 100%; in the series with Puccinia triticina, 100%; with Leptosphaeria nodorum it was 100%. Moreover, the “% Inhibition of fungal growth at 50 μM” value in the series on Fusarium graminearum is listed as 100%. The “% Inhibition of Aflatoxin at 50 μM” value in the series with aflatoxines production came to 100%. Moreover, in [3], the logP is listed as 4.18.

As to `Cn1nc(C(F)F)c(C(=O)N(C[Si](C)(C)c2ccccc2Cl)C2CC2)c1F` [Example 231], the Efficacy with Phakopsora pachyrhizi came to 80%; in the series on Sphaerotheca fuliginea, 100%; in the series on Venturia inaequalis, 99%; with Septoria tritici it was 100%; with Uromyces appendiculatus, 100%; with Botrytis cinerea (setting [4]), 99%. For the same compound, the Efficacy was found to be 94% in the series on Alternaria solani; 100% with Pyrenophora teres; 100% in series [1]; 83% in series [2]; 100% in the series with Puccinia triticina; 100% with Leptosphaeria nodorum. Besides, in the series with Fusarium graminearum, the “% Inhibition of fungal growth at 50 μM” value is 100%. The “% Inhibition of Aflatoxin at 50 μM” value with aflatoxines production turned out to be 100%. The logP in series [3] worked out at 4.13.

Regarding `Cn1nc(C(F)F)c(C(=O)N(C[Si](C)(C)c2cc(Cl)cc(Cl)c2)C2CC2)c1F` [Example 242], the Efficacy amounted to 99% in the series on Phakopsora pachyrhizi; 100% in the series with Venturia inaequalis; 100% in the series with Septoria tritici; 100% with Uromyces appendiculatus; 100% with Botrytis cinerea (dose 500 ppm of active ingredient, table K10); 100% with Botrytis cinerea (setting [4]). For the same compound, the Efficacy result is recorded as “total protection” in the series on Botrytis cinerea (preventive, beans, 500 ppm of active ingredient, lesion size 2 days after inoculation); 100% in the series on Alternaria solani; 100% in the series with Pyrenophora teres; 100% in series [1]; 83% in [2]; 100% with Puccinia triticina. This compound also came in with an Efficacy in the series with Leptosphaeria nodorum of 100%. The “% Inhibition of fungal growth at 50 μM” value with Fusarium graminearum worked out at 100%. Further, the “% Inhibition of Aflatoxin at 50 μM” value in the series with aflatoxines production was found to be 100%. In addition, the logP in [3] is 4.78.
